Measurements from ChEMBL document CHEMBL3286119, “Biarylmethoxy Nicotinamides As Novel and Specific Inhibitors of Mycobacterium tuberculosis” (ACS Med Chem Lett, 2014).
In brackets after ≈: the same amount, converted by molar mass.

Tested on: Staphylococcus aureus
Assay: Antimicrobial activity against Staphylococcus aureus ARC517 after 5 days by microdilution method
Format: functional
Settings: ARC517, 120 h
`COCCOc1ccc(-c2cnc(COc3ncccc3C(N)=O)nc2)c(C)c1` showed an MIC80 greater than 60 µM.
With `NC(=O)c1cccnc1OCc1ccc(-c2ccc(OCC3CCCO3)cc2Cl)cn1` (stereo not given) the MIC80 was greater than 60 µM.

Tested on: Haemophilus influenzae
Assay: Antimicrobial activity against Haemophilus influenzae ARC158 after 5 days by microdilution method
Format: functional
Settings: ARC158, 120 h
For `COCCOc1ccc(-c2cnc(COc3ncccc3C(N)=O)nc2)c(C)c1`, the MIC80 was greater than 60 µM.
In the case of `NC(=O)c1cccnc1OCc1ccc(-c2ccc(OCC3CCCO3)cc2Cl)cn1` (stereo not given), the MIC80 is reported as greater than 60 µM.

Tested on: Escherichia coli
Assay: Antimicrobial activity against Escherichia coli ARC524 after 5 days by microdilution method
Format: functional
Settings: ARC524, 120 h
`COCCOc1ccc(-c2cnc(COc3ncccc3C(N)=O)nc2)c(C)c1` showed an MIC80 greater than 60 µM.
`NC(=O)c1cccnc1OCc1ccc(-c2ccc(OCC3CCCO3)cc2Cl)cn1` (stereo not given) showed an MIC80 greater than 60 µM.

Tested on: Streptococcus pyogenes
Assay: Antimicrobial activity against Streptococcus pyogenes after 5 days by microdilution method
Format: functional
Settings: 120 h
`COCCOc1ccc(-c2cnc(COc3ncccc3C(N)=O)nc2)c(C)c1` gave an MIC80 greater than 60 µM.
In the case of `NC(=O)c1cccnc1OCc1ccc(-c2ccc(OCC3CCCO3)cc2Cl)cn1` (stereo not given), the MIC80 is reported as greater than 60 µM.

Tested on: Candida albicans
Assay: Antimicrobial activity against Candida albicans ARC526 after 5 days by microdilution method
Format: functional
Settings: ARC526, 120 h
For `COCCOc1ccc(-c2cnc(COc3ncccc3C(N)=O)nc2)c(C)c1`, the MIC80 was greater than 60 µM.
`NC(=O)c1cccnc1OCc1ccc(-c2ccc(OCC3CCCO3)cc2Cl)cn1` (stereo not given) gave an MIC80 greater than 60 µM.

Tested on: not listed separately
Assay: Lipophilicity, log D of the compound
Format: physicochemical
Settings: octanol/water
With `Cc1cc(OCC2CCCO2)ccc1-c1ccc(COc2ncccc2C(N)=O)nc1` (stereo not given) the logD was 2.8.
With `NC(=O)c1cccnc1OCc1ccc(-c2ccc(OCC3CCCO3)cc2Cl)cn1` (stereo not given) the logD was 2.8.

Tested on: Klebsiella pneumoniae
Assay: Antimicrobial activity against Klebsiella pneumoniae ARC1865 after 5 days by microdilution method
Format: functional
Settings: ARC1865, 120 h
In the case of `COCCOc1ccc(-c2cnc(COc3ncccc3C(N)=O)nc2)c(C)c1`, the MIC80 is reported as greater than 60 µM.
In the case of `NC(=O)c1cccnc1OCc1ccc(-c2ccc(OCC3CCCO3)cc2Cl)cn1` (stereo not given), the MIC80 is reported as greater than 60 µM.

Tested on: Mycobacterium tuberculosis
Assay: Antimicrobial activity against Mycobacterium tuberculosis H37Rv ATCC 27294 after 5 days by microdilution method
Format: functional
Settings: H37Rv ATCC 27294, 120 h
Compound `Cc1cc(OCC2CCCO2)ccc1-c1ccc(COc2ncccc2C(N)=O)nc1` (stereo not given) has an MIC of 4.7 µM (≈ 1.97 µg/mL).
Work on `COCCOc1ccc(-c2cnc(COc3ncccc3C(N)=O)nc2)c(C)c1` yielded an MIC of 1.5 µM (≈ 0.592 µg/mL).
`NC(=O)c1cccnc1OCc1ccc(-c2ccc(OCC3CCCO3)cc2Cl)cn1` (stereo not given) showed an MIC of 1.1 µM (≈ 0.484 µg/mL).

Tested on: Streptococcus pneumoniae
Assay: Antimicrobial activity against Streptococcus pneumoniae ARC548 after 5 days by microdilution method
Format: functional
Settings: ARC548, 120 h
In the case of `COCCOc1ccc(-c2cnc(COc3ncccc3C(N)=O)nc2)c(C)c1`, the MIC80 is reported as greater than 60 µM.
For `NC(=O)c1cccnc1OCc1ccc(-c2ccc(OCC3CCCO3)cc2Cl)cn1` (stereo not given), the MIC80 was greater than 60 µM.

Tested on: not listed separately
Assay: Cytotoxicity against human THP1 cells after 24 hrs by resazurin assay
Format: cell-based, THP-1
Settings: read-out: MIC
In the case of `Cc1cc(OCC2CCCO2)ccc1-c1ccc(COc2ncccc2C(N)=O)nc1` (stereo not given), the MCC at 24 h is reported as greater than 50 µM.
In the case of `COCCOc1ccc(-c2cnc(COc3ncccc3C(N)=O)nc2)c(C)c1`, the MCC at 24 h is reported as greater than 50 µM.
With `NC(=O)c1cccnc1OCc1ccc(-c2ccc(OCC3CCCO3)cc2Cl)cn1` (stereo not given) the MCC at 24 h was greater than 50 µM.

Tested on: Haemophilus influenzae
Assay: Antimicrobial activity against Haemophilus influenzae ARC446 after 5 days by microdilution method
Format: functional
Settings: ARC446, 120 h
`COCCOc1ccc(-c2cnc(COc3ncccc3C(N)=O)nc2)c(C)c1` showed an MIC80 greater than 60 µM.
Compound `NC(=O)c1cccnc1OCc1ccc(-c2ccc(OCC3CCCO3)cc2Cl)cn1` (stereo not given) has an MIC80 greater than 60 µM.

Tested on: Escherichia coli
Assay: Antimicrobial activity against Escherichia coli ARC523 after 5 days by microdilution method
Format: functional
Settings: ARC523, 120 h
In the case of `COCCOc1ccc(-c2cnc(COc3ncccc3C(N)=O)nc2)c(C)c1`, the MIC80 is reported as greater than 60 µM.
With `NC(=O)c1cccnc1OCc1ccc(-c2ccc(OCC3CCCO3)cc2Cl)cn1` (stereo not given) the MIC80 was greater than 60 µM.

Tested on: Pseudomonas aeruginosa
Assay: Antimicrobial activity against Pseudomonas aeruginosa ARC546 after 5 days by microdilution method
Format: functional
Settings: ARC546, 120 h
Work on `COCCOc1ccc(-c2cnc(COc3ncccc3C(N)=O)nc2)c(C)c1` yielded an MIC80 greater than 60 µM.
For `NC(=O)c1cccnc1OCc1ccc(-c2ccc(OCC3CCCO3)cc2Cl)cn1` (stereo not given), the MIC80 was greater than 60 µM.

Tested on: Pseudomonas aeruginosa
Assay: Antimicrobial activity against Pseudomonas aeruginosa ARC545 after 5 days by microdilution method
Format: functional
Settings: ARC545, 120 h
`COCCOc1ccc(-c2cnc(COc3ncccc3C(N)=O)nc2)c(C)c1` showed an MIC greater than 60 µM.
With `NC(=O)c1cccnc1OCc1ccc(-c2ccc(OCC3CCCO3)cc2Cl)cn1` (stereo not given) the MIC was greater than 60 µM.
